Data taken from patent publication US20200261534A1, “NEW TREATMENTS OF MULTIPLE MYELOMA” (priority 2017, published 2020).
Like-named read-outs stand apart in the source and are kept apart here. Starred links: 1 amine or outer side, 2 acyl side, 3 side chain; linkers in the order of their positions; H or OH if unused. Positions of bridges follow the written chain, without caps; N, C: chain ends. Non-standard residues stand in square brackets, D forms with d. Residues, ends and D or L forms follow the SMILES beside them. ξ: configuration not given here. Biphenyl(4,4'-CH2)2 = c1cc(-c2ccc(C[*:2])cc2)ccc1C[*:1]; ξαMeNle(6-ylidene) = CC(CCCC=[*:3])(N[*:1])C(=O)[*:2]; X1 = CC(CCCCCCC=[*:3])(N[*:1])C(=O)[*:2]; Octanediyl(1,8) = C(CCCC[*:2])CCC[*:1]; ξC = NC(CS)C(=O)O

Key:
Format in all cases: cell-based
[1] = system: MM.1S, B Lymphoblast (multiple myeloma); assay: MTT viability assay, MM.1S
Protocol: MM.1S, B Lymphoblast (multiple myeloma), ATCC: CRL-2974
(§1) Cell lines A549, MCF-7 and RAMOS were cultured in incubator under CO2 (6%) at 37° C. in DMEM high glucose (Dulbecco's Modified Eagle Solution, Gibco-BRL 31966-21) medium with 10% fetal bovine serum inactivated (FBS) (Gibco-BRL 10106-169). Cell lines HL-60 and MM.1S were cultured in incubator at 37° C. in RPMI-1640 (Sigma R8758) medium with 10% of fetal bovine serum inactivated (FBS) and 2 mM glutamine (Sigma G7513). Cell lines BJ were cultured in incubator under CO2 (6%) at 37° C. in Eagle's Minimum Essential Medium (Sigma, M-2279) with 10% fetal bovine serum inactivated (FBS) (Gibco-BRL 10106-169).
(§2) During the amplification step and the assays adherent cells were rinsed with DPBS (Dulbecco's Phosphate Buffered Saline, Sigma D1283) three times and afterward treated for 5 minutes with trypsin ([…]) (Gibco-BRL, 15400054) in solution of DPBS at 37° C., and, once detached, transferred in the culturing medium. No-adherent cells were centrifuged and transferred in the culturing medium. Cells were counted in a Neubauer chamber after labelling with Tripan-Blue.
Cells were seeded at a density of 10000 cells/well in 100 μl of medium in 96 well plates. After 24 h, the compounds to be tested were added to calculate the dose/response curve at the starting concentration of 100 μM with serial dilutions (1:1). Controls are the untreated cells. Each experiment was performed in triplicate.
(§3) Cells were incubated with the compounds at the indicated concentrations during 24-72 h in incubator under CO2 atmosphere at 37° C. Then, cell viability was measured by means of MTT (3-(4,5-dimethylthiazol-2-yl)-2,5-diphenyltetrazolium bromide) assay. Stock solution of MTT (475989 Calbiochem) was 5 mg/ml in PBS. 1×.10 μl/well of MTT solution were added and the plate was incubated for 3-4 hr. The medium was discarded and 100 μl of extracting buffer (PBS 1×, 15% SDS, 50% […] N,N-Dimethylformamide, pH 4.7) were added to each well. Plates were incubated for 16 h at room temperature under orbital shaking. Absorbance at 570 nm was finally measured. As negative control (experiment noise) 3 wells were treated with 20 μl/well of a solution of SDS 10% in H2O.
(§4) Data analysis was performed calculating the percentage of cell viability normalized vs. the values of negative control, which was considered equal to 100%. The dose/response curve was fitted through the sigmoidal equation dose-response (variable slope) and the IC50 values were calculated as follow:
Y=Bottom+(Top−Bottom)/(1+10^{[(LogIC50−X)*HillSlope]},
All cell lines were cultured in incubator at 37° C. in RPMI-1640 (Sigma R8758) medium with 10% of fetal bovine serum inactivated (FBS) and 2 mM glutamine (Sigma G7513). During the amplification step cells were centrifuged and transferred into the culturing medium. Cells were counted in a Neubauer chamber after labelling with Tripan-Blue.
as §3, with “peptidomimetic compound (S09)” for “compounds”
Cell lines A549 and MBA-MD231 were cultured in incubator under CO2 (6%) at 37° C. in DMEM high glucose (Dulbecco's Modified Eagle Solution, Gibco-BRL 31966-21) medium with 10% fetal bovine serum inactivated (FBS) (Gibco-BRL 10106-169). […]

[2] = system: A549, epithelial (lung cancer); assay: MTT viability assay, A549
Protocol: A549, epithelial (lung cancer), ATCC: CCL-185
as §1
as §2, with “Tripan-Blue. […]” for “Tripan-Blue.”
as §3
as §4, with “follow: […]” for “follow:”

[3] = system: RAMOS, B lymphocyte (Burkitt's Lymphoma); assay: MTT viability assay, RAMOS
Protocol: RAMOS, B lymphocyte (Burkitt's Lymphoma), ATCC: CRL-1596 […] During the amplification step and the assays adherent cells were rinsed with DPBS (Dulbecco's Phosphate Buffered Saline, Sigma D1283) three times and afterward treated for 5 minutes with trypsin ([…]) (Gibco-BRL, 15400054) in solution of DPBS at 37° C., and, once detached, transferred in the culturing medium. No-adherent cells were centrifuged and transferred in the culturing medium. Cells were counted in a Neubauer chamber after labelling with Tripan-Blue. […] Cells were seeded at a density of 10000 cells/well in 100 μl of medium in 96 well plates. […] Controls are the untreated cells. Each experiment was performed in triplicate. Cells were incubated with the compounds at the indicated concentrations during 24-72 h in incubator under CO2 atmosphere at 37° C. […] Stock solution of MTT (475989 Calbiochem) was 5 mg/ml in PBS. 1×.10 μl/well of MTT solution were added and the plate was incubated for 3-4 hr. […] Plates were incubated for 16 h at room temperature under orbital shaking. Absorbance at 570 nm was finally measured. […] The dose/response curve was fitted through the sigmoidal equation dose-response (variable slope) and the IC50 values were calculated as follow: Y=Bottom+(Top−Bottom)/(1+10^{[(LogIC50−X)*HillSlope]},

[4] = MM.1S, same protocol as Example 2, Table 6, read-out: Compound (IC50)
[5] = A549, same protocol as Example 2, Table 6, read-out: Compound (IC50)
[6] = Ramos, same protocol as Example 2, Table 6, read-out: Compound (IC50)

SMILES | IC50 [1] [µM] | IC50 [2] [µM] | IC50 [3] [µM] | further results
CCc1ccc(/C=C2/SC(=S)NC2=O)cc1 [10058-F4, reference compound] |  |  |  | IC50 ([1]; MM.1S, MTT, incubation 24-72 h, Table 3, read-out: IC50 values): > 100 µM; IC50 ([2]; A549, MTT, incubation 24-72 h, Table 3, read-out: IC50 values): > 100 µM; IC50 ([3]; Ramos, MTT, incubation 24-72 h, Table 3, read-out: IC50 values): ~57 µM
CC[C@H](C)[C@H](NC(=O)[C@H](Cc1ccc(O)cc1)NC(=O)[C@H](C)NC(=O)C1CSCCCCCCCCSCC(NC(=O)[C@H](CCCCN)NC(=O)[C@@H]2CCCN2C(=O)[C@H](C)N)C(=O)N[C@@H](C(C)C)C(=O)N[C@@H]([C@@H](C)CC)C(=O)N[C@@H](CC(C)C)C(=O)N[C@@H](CCCCN)C(=O)N[C@@H](CCCCN)C(=O)N[C@@H](C)C(=O)N1)C(=O)N[C@@H](CC(C)C)C(=O)N[C@@H](CO)C(=O)O (some centres unmarked) [IDP-P1708160] (H-APK[ξC]VILKKA[ξC]AYILS-OH; linker 4-11 via Octanediyl(1,8); N-terminus and C-terminus assumed) | 48 | 65 ± 17 |  | IC50 ([1]; 24 h): 35 µM; IC50 ([1]; 72 h): 5 µM
CC[C@H](C)[C@H](NC(=O)[C@H](Cc1ccc(O)cc1)NC(=O)[C@H](C)NC(=O)[C@@H]1CSCc2ccc(cc2)-c2ccc(cc2)CSC[C@H](NC(=O)[C@H](CCCCN)NC(=O)[C@@H]2CCCN2C(=O)[C@H](C)N)C(=O)N[C@@H](C(C)C)C(=O)N[C@@H]([C@@H](C)CC)C(=O)N[C@@H](CC(C)C)C(=O)N[C@@H](CCCCN)C(=O)N[C@@H](CCCCN)C(=O)N[C@@H](C)C(=O)N1)C(=O)N[C@@H](CC(C)C)C(=O)N[C@@H](CO)C(=O)O [IDP-P1708161] (H-APKCVILKKACAYILS-OH; linker 4-11 via Biphenyl(4,4'-CH2)2; N-terminus and C-terminus assumed) | 33 ± 15 | 42 ± 6 |  | IC50 ([1]; 24 h): 10 µM; IC50 ([1]; 72 h): 15 µM
CC[C@H](C)[C@H](NC(=O)[C@@H](NC(=O)[C@@H](NC(=O)[C@H](CCCCN)NC(=O)[C@@H]1CCCN1C(=O)[C@H](C)N)C(C)C)C(C)C)C(=O)NC1(C)CCCCCCC=CCCCC(C)(C(=O)N[C@@H](CC(C)C)C(=O)N[C@@H](CO)C(=O)O)NC(=O)[C@H](Cc2ccc(O)cc2)NC(=O)[C@H](C)NC(=O)[C@H]([C@@H](C)O)NC(=O)[C@H](C)NC(=O)[C@H](CCCCN)NC(=O)[C@H](CCCCN)NC1=O (some centres unmarked) [IDP-S17, APKVVIXKKATAYXLS] (H-APKVVI[X1]KKATAY[ξαMeNle(6-ylidene)]LS-OH; staple 7-14; N-terminus and C-terminus assumed) | > 100 | > 100 | > 100 | 
CC[C@H](C)[C@H](NC(=O)[C@H](Cc1ccc(O)cc1)NC(=O)[C@H](C)NC(=O)[C@@H](NC(=O)[C@H](C)NC(=O)C1(C)CCCC=CCCCCCCC(C)(NC(=O)[C@H](C)N)C(=O)N[C@@H](CCCCN)C(=O)N[C@@H](C(C)C)C(=O)N[C@@H](C(C)C)C(=O)N[C@@H]([C@@H](C)CC)C(=O)N[C@@H](CC(C)C)C(=O)N[C@@H](CCCCN)C(=O)N1)[C@@H](C)O)C(=O)N[C@@H](CC(C)C)C(=O)N[C@@H](CO)C(=O)O (some centres unmarked) [IDP-S19, AXKVVILKXATAYILS] (H-A[X1]KVVILK[ξαMeNle(6-ylidene)]ATAYILS-OH; staple 2-9) |  |  |  | IC50 [1, 4]: > 100 µM; IC50 [2, 5]: > 100 µM; IC50 [3, 6]: > 100 µM
CC[C@H](C)[C@H](NC(=O)[C@H](Cc1ccc(O)cc1)NC(=O)C1(C)CCCC=CCCCCCCC(C)(NC(=O)[C@@H](NC(=O)[C@H](CCCCN)NC(=O)[C@@H]2CCCN2C(=O)[C@H](C)N)C(C)C)C(=O)N[C@@H]([C@@H](C)CC)C(=O)N[C@@H](CC(C)C)C(=O)N[C@@H](CCCCN)C(=O)N[C@@H](CCCCN)C(=O)N[C@@H](C)C(=O)N[C@@H]([C@@H](C)O)C(=O)N1)C(=O)N[C@@H](CC(C)C)C(=O)N[C@@H](CO)C(=O)O (some centres unmarked) [IDP-S21, APKVXILKKATXYILS] (H-APKV[X1]ILKKAT[ξαMeNle(6-ylidene)]YILS-OH; staple 5-12) |  |  |  | IC50 [1, 4]: > 100 µM; IC50 [2, 5]: > 100 µM; IC50 [3, 6]: > 100 µM

The next lines start with results.

IC50 [1] [µM] | IC50 [2] [µM] | IC50 [3] [µM] | SMILES | further results
> 100 | > 100 | > 100 | CC[C@H](C)[C@@H]1NC(=O)[C@H](Cc2ccc(O)cc2)NC(=O)[C@H](C)NC(=O)[C@H]([C@@H](C)O)NC(=O)[C@H](C)NC(=O)[C@H](CCCCN)NC(=O)C(C)(NC(=O)[C@H](CC(C)C)NC(=O)[C@@H](NC(=O)[C@@H](NC(=O)[C@@H](NC(=O)[C@H](CCCCN)NC(=O)[C@@H]2CCCN2C(=O)[C@H](C)N)C(C)C)C(C)C)[C@@H](C)CC)CCCCCCC=CCCCC(C)(C(=O)N[C@@H](CO)C(=O)O)NC1=O (some centres unmarked) [IDP-S18, APKVVILXKATAYIXS] (H-APKVVIL[X1]KATAYI[ξαMeNle(6-ylidene)]S-OH; staple 8-15; N-terminus and C-terminus assumed) | 
> 100 | > 100 | > 100 | CC[C@H](C)[C@H](NC(=O)C1(C)CCCC=CCCCCCCC(C)(NC(=O)[C@@H](NC(=O)[C@@H](NC(=O)[C@H](CCCCN)NC(=O)[C@@H]2CCCN2C(=O)[C@H](C)N)C(C)C)C(C)C)C(=O)N[C@@H](CC(C)C)C(=O)N[C@@H](CCCCN)C(=O)N[C@@H](CCCCN)C(=O)N[C@@H](C)C(=O)N[C@@H]([C@@H](C)O)C(=O)N[C@@H](C)C(=O)N1)C(=O)N[C@@H](CC(C)C)C(=O)N[C@@H](CO)C(=O)O (some centres unmarked) [IDP-S22, APKVVXLKKATAXILS] (H-APKVV[X1]LKKATA[ξαMeNle(6-ylidene)]ILS-OH; staple 6-13; N-terminus and C-terminus assumed) | 
